Experimental data taken from patent publication US20100247533A1, “TREATMENT WITH A HUMANIZED ANTI-EGFR IgG1 ANTIBODY AND IRINOTECAN” (priority 2009, published 2010).

Assays:
[1] = test system: A549 lung adenocarcinoma xenografts; assay: Animal survival study in vivo, A549 lung adenocarcinoma xenograft model; set-up: species or system SCID beige mice
Protocol: Partially fucosylated GlycArt-mAb was provided as stock solution (c=11.3 mg/ml), in a buffer containing histidine, trehalose and polysorbate 20. The antibody stock solution was appropriately diluted in PBS prior to injection.
The antibody concentration was adjusted by dilution of the reconstituted stock solution prior to injection.
Irinotecan/CPT-11 (Campto®) was purchased as clinical formulation (20 mg/ml) from Pfizer Pharma GmbH, Karlsruhe, Germany. The antibody concentration was adjusted by dilution of the reconstituted stock solution prior to injection.
A549 human Non Small Cell Lung Cancer (NSCLC) cells were obtained from ATCC. The tumor cell line was routinely cultured in RPMI medium (PAA Laboratories, Austria) supplemented with 10% fetal bovine serum (PAA Laboratories, Austria) and 2 mM L-glutamine, at 37° C. in a water-saturated atmosphere at 5% CO2.
Passage 3 of A549 cells was used for in vivo injection. 2×10^6 cells in PBS were injected intravenously (i.v.).
Female SCID beige mice; age 7-8 weeks at arrival (purchased from Charles River, Sulzfeld, Germany) were maintained under specific pathogen-free conditions with daily cycles of 12 h light/12 h darkness according to committed guidelines (GV-Solas; Felasa; TierschG). […]
The primary parameter was survival. The data was statistically analyzed by log rank test.

colorectal cancer = settings: combined with 5-fluorouracil and leucovorin; first-line treatment for colorectal cancer; cited from earlier work

Structure (SMILES)	p (log rank test), survival compared to vehicle control ([1]; antibodies 25 mg/kg i.p. every seven days, irinotecan 20 mg/kg i.p. four times, single agents or combinations)	animal survival compared to vehicle control ([1]; single agents, antibodies 25 mg/kg i.p. every seven days (day 7-98), irinotecan 20 mg/kg i.p. day 7, 10, 14, 17, A549 cells injected i.v.)	response rates (colorectal cancer)
CCc1c2c(nc3ccc(OC(=O)N4CCC(N5CCCCC5)CC4)cc13)-c1cc3c(c(=O)n1C2)COC(=O)[C@]3(O)CC [irinotecan]	0.017	significantly prolonged animal survival	–
O=C1[O][Pt]2([NH][C@@H]3CCCC[C@H]3[NH]2)[O]C1=O [oxaliplatin]	–	–	25-40%
